Laboratory results taken from PMC3032886, “Cell-Penetrant, Nanomolar O-GlcNAcase Inhibitors Selective against Lysosomal Hexosaminidases” (Chemistry & Biology, 2010).
Read-outs that look alike come from different tables or passages of the source.

Assays:
hHexA/B [1] = conditions: read-out: Ki hHex A/B; cited from earlier work
hHexA/B [2] = assay: hHexA/B inhibition, fluorogenic 4MU-NAG substrate; assay type: biochemical, human; conditions: for Ki: read-out: Ki hHex A/B
hOGA = biological target: T1, hOGA (Homo sapiens, UniProt O60502); assay: hOGA steady-state kinetics, fluorogenic assay, competitive inhibition fit; assay type: biochemical
T1 construct: made in house
T1 sequence (O60502 1-916): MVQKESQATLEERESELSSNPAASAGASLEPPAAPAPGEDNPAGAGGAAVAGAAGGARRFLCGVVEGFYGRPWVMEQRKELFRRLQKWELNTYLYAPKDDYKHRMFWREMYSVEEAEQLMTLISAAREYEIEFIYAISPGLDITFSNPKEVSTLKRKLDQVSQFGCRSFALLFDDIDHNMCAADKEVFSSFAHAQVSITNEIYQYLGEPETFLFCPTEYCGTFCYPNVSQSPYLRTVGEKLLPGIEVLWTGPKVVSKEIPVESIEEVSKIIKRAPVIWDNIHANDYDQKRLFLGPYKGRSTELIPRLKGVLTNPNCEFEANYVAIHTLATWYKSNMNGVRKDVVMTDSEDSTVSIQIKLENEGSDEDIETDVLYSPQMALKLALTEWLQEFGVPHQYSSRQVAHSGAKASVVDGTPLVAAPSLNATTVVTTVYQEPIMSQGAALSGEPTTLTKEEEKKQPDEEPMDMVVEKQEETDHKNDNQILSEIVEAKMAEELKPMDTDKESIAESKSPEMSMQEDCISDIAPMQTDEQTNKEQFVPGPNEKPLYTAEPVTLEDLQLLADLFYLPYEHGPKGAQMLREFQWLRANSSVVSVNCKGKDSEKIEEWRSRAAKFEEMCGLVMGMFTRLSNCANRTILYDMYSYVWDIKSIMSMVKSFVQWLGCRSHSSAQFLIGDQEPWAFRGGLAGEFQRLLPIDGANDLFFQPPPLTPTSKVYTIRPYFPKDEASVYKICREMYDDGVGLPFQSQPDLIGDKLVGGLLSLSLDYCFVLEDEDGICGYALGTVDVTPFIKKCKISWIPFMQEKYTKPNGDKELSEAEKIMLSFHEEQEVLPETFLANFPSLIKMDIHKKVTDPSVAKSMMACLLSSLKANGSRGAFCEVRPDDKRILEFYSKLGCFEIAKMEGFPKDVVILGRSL

CpOGA-wild-type [3] = biological target: T2, CpOGA-wild-type (Clostridium perfringens, UniProt Q0TR53); assay: biochemical; parameters: species or system C. perfringens
endogenous hOGA [4] = biological target: T3, endogenous hOGA (Homo sapiens, UniProt O60502); assay: Cellular O-GlcNAcylation western blot (CTD110.6 antibody), densitometry; assay type: cell-based; conditions: HEK293 cells, 6 hr; for EC50: densitometry, read-out: EC50 increase of cellular O-GlcNAcylation (western blot)
T3 construct: activity on endogenous hOGA in a cell-based assay with HEK293 cells; endogenous in cells; host or cells: HEK293
T3 sequence (O60502 1-916): T1 sequence (O60502 1-916)
Protocol: (§1) The novel GlcNAcstatin derivatives were investigated for their activity on endogenous hOGA in a cell-based assay with HEK293 cells. […] Furthermore, we determined the EC50 of GlcNAcstatins G and H by O-GlcNAc microscopy assay (Figure 3B; see Figure S1 available online). Elevated total O-GlcNAc levels in HEK293 cells were quantified and normalized over a reference DAPI signal.
For the O-GlcNAc western blots, HEK293 cells were cultured and treated with GlcNAcstatin derivatives as described previously ([Dorfmueller et al., 2009]). Cell lysates were separated by SDS PAGE, and O-GlcNAcylation was detected by western blotting with the anti-O-GlcNAc CTD110.6 antibody and quantified ([Dorfmueller et al., 2009]). To calculate the EC50 values of GlcNAcstatins C, F, and G, the data, background corrected with the untreated cells, were plotted against the inhibitor concentrations using the program GraphPad Prism (http://www.graphpad.com).

endogenous hOGA [5] = biological target: T3, endogenous hOGA; assay: O-GlcNAc microscopy assay (RL2 immunostaining, IN Cell Analyzer); assay type: cell-based; conditions: HEK293 cells, 6 hr, normalized over DAPI; read-out: EC50 total O-GlcNAc levels (microscopy assay)
Protocol: as §1
For the microscopy studies, HEK293 cells were seeded in clear flat-bottom 96 well assay plates (Corning 3340) and grown for 12 hr at 37°C under 5% CO2. Cells were treated with concentrations of GlcNAcstatins G and H (1% final DMSO concentration) for 6 hr. Cells were washed twice with 50 μl PBS and fixed in 3.7% formaldehyde for 10 min at 37°C. After washing with TBST (0.1% Triton X-100) and permeabilized for further 10 min, the cells were blocked with 2% BSA and 0.1% normal donkey serum in TBST for 1 hr at RT, followed by washing twice with TBST. Cells were immunostained with the RL2 O-GlcNAc antibody (1/500) for 12 hr at 4°C and fluorescent secondary (1/500) for 1 hr at RT. Cells were further washed twice with TBS before incubation with DAPI (5 μg/ml) and CellMask (1/25000). Cells were washed twice with TBS and stored in 50 μl PBS. Images were taken and analyzed with the IN Cell Analyzer 1000 system (GE Healthcare).

CpOGA-wild-type [6] = biological target: T2, CpOGA-wild-type; conditions: cited from earlier work

T2 sequence (Q0TR53 31-624 limits assumed): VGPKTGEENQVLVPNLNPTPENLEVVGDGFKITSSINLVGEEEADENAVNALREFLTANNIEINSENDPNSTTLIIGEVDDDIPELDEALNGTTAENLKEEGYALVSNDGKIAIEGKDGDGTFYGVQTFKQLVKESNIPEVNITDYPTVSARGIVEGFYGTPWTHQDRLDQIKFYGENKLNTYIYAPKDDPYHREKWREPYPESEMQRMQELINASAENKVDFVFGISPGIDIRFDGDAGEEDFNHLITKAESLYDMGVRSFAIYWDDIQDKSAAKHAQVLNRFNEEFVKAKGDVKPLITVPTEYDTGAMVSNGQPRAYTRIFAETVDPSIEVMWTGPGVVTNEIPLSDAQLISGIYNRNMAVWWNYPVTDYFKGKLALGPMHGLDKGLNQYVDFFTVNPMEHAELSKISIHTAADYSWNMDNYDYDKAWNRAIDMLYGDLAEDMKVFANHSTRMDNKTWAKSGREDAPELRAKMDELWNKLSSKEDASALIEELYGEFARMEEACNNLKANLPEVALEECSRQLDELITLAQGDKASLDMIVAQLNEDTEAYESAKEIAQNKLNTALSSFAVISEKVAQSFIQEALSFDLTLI

Row | Molecule | Ki (hHexA/B [1]) | Ki (hHexA/B [2]) | Ki (hOGA; physiological pH 7.3) | Ki (CpOGA-wild-type [3]) | EC50 (endogenous hOGA [4]) | EC50 (endogenous hOGA [5]) | also measured
1 | Thiamet-G | 750 µM | – | – | – | – | – | –
2 | O=C(CCS)N[C@H]1c2nc(CCc3ccccc3)cn2[C@H](CO)[C@@H](O)[C@@H]1O [GlcNAcstatin F] | – | 11 ± 0.6 µM | 0.0112 ± 0.0014 µM | 3.2 ± 0.2 pM | 0.29 µM | – | –
3 | CCCCC(=O)N[C@H]1c2nc(CCc3ccccc3)cn2[C@H](CO)[C@@H](O)[C@@H]1O [GlcNAcstatin H] | – | – | 0.0026 ± 0.0003 µM | – | – | 0.042 µM | Ki (hHexA/B [2]; Cheng-Prusoff, approximate values obtained after including an artificial 100% inhibition point (footnote d)): 100 ± 30 µM; Selectivity (hHexA/B/hOGA) (hOGA; ratio of Ki hHexA/B to Ki hOGA): 35,000
4 | CC(=O)N[C@H]1/C(=N/OC(=O)Nc2ccccc2)O[C@H](CO)[C@@H](O)[C@@H]1O [PUGNAc, reference compound] | 0.036 µM | – | – | 5400 ± 400 pM | – | – | –
5 | C=CC=CC(=O)NC1c2nc(CCc3ccccc3)cn2C(CO)C(O)C1O (stereo not drawn) [GlcNAcstatin G] | – | > 3700 µM | 0.0041 ± 0.0007 µM | 7.8 ± 0.7 pM | 0.02 µM | 0.003 µM | IC50 (hHexA/B [2]): ~7000 µM; concentration in culture media inducing maximum levels of O-GlcNAcylation (endogenous hOGA [4]; western blot): 100 nM
6 | CC(C)C(=O)N[C@H]1c2nc(CCc3ccccc3)cn2[C@H](CO)[C@@H](O)[C@@H]1O [GlcNAcstatin C] | – | 0.6 ± 0.1 µM | 0.0032 ± 0.0009 µM | – | 0.02 µM | – | pH optimum of hOGA inhibition (hOGA; McIlvaine buffer, pH range 4.9–8.1, 1/Ki versus pH): 6.6; Ki (hOGA; pH 6.6 (maximum potency)): 0.0029 µM; Ki (CpOGA-wild-type [6]): 4.6 ± 0.2 pM
